Reference: the kinase profiling compilation of Christmann-Franck et al. (2016)

What was measured:
Test in all cases: KINOMEscan competition binding
Conditions in all cases: compound 10.0 µM
[1] = test system: ABL1 (human), P00519 [E255K]
[2] = test system: ABL1 (human), P00519 [F317I]
[3] = test system: ABL1 (human), P00519 [F317L]
[4] = test system: ABL1 (human), P00519 [H396P]
[5] = test system: ABL1 (human), P00519 [M351T]
ADCK3 (human) = ADCK3 (human) (UniProt Q8NI60)
BRSK1 (human) = BRSK1 (human) (UniProt Q8TDC3)
Chain of BRSK1 (human) (Q8TDC3 whole entry, looked up): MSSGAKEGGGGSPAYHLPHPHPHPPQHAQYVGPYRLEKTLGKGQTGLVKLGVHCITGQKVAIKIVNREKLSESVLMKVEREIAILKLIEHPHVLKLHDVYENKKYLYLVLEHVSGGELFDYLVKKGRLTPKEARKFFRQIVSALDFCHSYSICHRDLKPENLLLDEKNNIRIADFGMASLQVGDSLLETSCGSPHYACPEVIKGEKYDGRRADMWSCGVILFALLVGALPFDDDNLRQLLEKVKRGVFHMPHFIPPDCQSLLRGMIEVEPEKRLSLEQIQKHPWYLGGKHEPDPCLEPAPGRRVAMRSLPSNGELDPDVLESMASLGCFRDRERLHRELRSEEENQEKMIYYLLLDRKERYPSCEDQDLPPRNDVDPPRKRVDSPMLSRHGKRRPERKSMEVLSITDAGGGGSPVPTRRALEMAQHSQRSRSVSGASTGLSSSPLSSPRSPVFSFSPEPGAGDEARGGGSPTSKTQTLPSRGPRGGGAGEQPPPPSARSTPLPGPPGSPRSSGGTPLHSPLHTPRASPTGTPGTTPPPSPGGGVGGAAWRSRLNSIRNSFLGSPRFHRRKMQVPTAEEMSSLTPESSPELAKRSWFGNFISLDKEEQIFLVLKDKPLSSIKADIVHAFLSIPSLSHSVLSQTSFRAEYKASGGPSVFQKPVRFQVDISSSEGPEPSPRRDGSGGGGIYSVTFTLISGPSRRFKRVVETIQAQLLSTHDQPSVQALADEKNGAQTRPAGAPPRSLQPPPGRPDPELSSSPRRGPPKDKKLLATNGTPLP

CAMK1D (human) = CAMK1D (human) (UniProt Q8IU85)
Chain of CAMK1D (human) (Q8IU85 whole entry, looked up): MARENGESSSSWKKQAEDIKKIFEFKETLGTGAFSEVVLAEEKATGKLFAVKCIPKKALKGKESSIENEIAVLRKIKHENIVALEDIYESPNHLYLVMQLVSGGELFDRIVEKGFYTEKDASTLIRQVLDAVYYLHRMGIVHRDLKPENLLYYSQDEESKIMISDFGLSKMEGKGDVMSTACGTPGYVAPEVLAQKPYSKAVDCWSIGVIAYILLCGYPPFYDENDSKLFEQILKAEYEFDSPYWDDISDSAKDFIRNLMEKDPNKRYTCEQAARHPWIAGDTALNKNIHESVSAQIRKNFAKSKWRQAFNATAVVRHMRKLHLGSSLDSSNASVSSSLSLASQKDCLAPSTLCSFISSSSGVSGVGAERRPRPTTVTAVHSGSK

CAMK1G (human) = CAMK1G (human) (UniProt Q96NX5)
CDC2L2 (human) = CDC2L2 (human) (UniProt Q9UQ88)
CDC42BPG (human) = CDC42BPG (human) (UniProt Q6DT37)
CDK11B (human) = CDK11B (human) (UniProt P21127)
CDK14 (human) = CDK14 (human) (UniProt O94921)
CDK15 (human) = CDK15 (human) (UniProt Q96Q40)
DCLK2 (human) = DCLK2 (human) (UniProt Q8N568)
EPHA4 (human) = EPHA4 (human) (UniProt P54764)
EPHB1 (human) = EPHB1 (human) (UniProt P54762)
ERBB4 (human) = ERBB4 (human) (UniProt Q15303)
FES (human) = FES (human) (UniProt P07332)
FGFR4 (human) = FGFR4 (human) (UniProt P22455)
GSK3B (human) = GSK3B (human) (UniProt P49841)
IKBKB (human) = IKBKB (human) (UniProt O14920)
INSR (human) = INSR (human) (UniProt P06213)
KDR (human) = KDR (human) (UniProt P35968)
Chain of KDR (human) (P35968 whole entry, looked up): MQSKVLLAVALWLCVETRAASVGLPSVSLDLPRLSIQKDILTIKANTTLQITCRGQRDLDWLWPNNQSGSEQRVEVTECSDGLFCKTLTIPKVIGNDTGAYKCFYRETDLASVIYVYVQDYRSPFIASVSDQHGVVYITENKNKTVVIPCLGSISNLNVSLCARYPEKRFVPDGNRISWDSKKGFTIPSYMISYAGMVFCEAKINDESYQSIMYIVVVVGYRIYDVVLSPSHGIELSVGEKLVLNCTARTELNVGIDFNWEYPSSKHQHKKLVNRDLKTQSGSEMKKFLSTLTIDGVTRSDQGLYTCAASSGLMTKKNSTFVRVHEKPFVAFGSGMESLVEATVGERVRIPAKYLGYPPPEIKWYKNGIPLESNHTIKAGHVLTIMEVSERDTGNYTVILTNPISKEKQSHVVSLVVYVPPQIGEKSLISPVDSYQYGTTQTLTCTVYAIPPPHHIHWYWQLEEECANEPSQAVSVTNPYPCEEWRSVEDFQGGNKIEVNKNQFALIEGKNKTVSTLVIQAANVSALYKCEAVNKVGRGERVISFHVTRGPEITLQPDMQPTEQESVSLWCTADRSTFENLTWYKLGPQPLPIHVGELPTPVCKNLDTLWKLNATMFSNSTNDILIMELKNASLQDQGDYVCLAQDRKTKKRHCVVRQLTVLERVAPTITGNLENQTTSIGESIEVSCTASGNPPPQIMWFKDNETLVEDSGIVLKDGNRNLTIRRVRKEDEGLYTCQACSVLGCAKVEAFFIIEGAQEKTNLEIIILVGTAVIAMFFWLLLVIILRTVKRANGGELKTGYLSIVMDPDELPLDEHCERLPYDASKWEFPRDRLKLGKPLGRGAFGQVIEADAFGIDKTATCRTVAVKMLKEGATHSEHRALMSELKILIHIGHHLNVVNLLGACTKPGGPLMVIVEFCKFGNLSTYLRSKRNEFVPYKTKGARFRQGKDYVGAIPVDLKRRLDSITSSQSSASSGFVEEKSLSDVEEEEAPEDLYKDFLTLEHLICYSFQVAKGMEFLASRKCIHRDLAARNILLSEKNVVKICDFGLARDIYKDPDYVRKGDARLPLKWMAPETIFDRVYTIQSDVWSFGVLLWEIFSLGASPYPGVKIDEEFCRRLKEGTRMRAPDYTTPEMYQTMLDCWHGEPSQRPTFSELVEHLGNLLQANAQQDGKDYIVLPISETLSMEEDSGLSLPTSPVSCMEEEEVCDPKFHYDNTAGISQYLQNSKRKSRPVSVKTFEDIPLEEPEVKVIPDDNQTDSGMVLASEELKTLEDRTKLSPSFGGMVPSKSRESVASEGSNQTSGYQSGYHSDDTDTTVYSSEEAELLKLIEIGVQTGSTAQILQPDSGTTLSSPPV

LATS1 (human) = LATS1 (human) (UniProt O95835)
MAP2K6 (human) = MAP2K6 (human) (UniProt P52564)
Chain of MAP2K6 (human) (P52564 whole entry, looked up): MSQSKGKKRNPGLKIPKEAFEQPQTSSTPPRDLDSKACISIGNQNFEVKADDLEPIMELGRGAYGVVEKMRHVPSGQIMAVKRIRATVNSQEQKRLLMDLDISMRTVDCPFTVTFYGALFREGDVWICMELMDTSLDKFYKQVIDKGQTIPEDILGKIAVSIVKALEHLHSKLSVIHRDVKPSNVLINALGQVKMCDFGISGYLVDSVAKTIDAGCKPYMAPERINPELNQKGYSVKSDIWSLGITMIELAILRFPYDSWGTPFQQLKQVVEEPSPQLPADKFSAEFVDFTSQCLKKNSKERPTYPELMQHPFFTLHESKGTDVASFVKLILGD

MAP3K9 (human) = MAP3K9 (human) (UniProt P80192)
MAPK13 (human) = MAPK13 (human) (UniProt O15264)
MARK3 (human) = MARK3 (human) (UniProt P27448)
NLK (human) = NLK (human) (UniProt Q9UBE8)
NTRK1 (human) = NTRK1 (human) (UniProt P04629)
NUAK1 (human) = NUAK1 (human) (UniProt O60285)
Chain of NUAK1 (human) (O60285 whole entry, looked up): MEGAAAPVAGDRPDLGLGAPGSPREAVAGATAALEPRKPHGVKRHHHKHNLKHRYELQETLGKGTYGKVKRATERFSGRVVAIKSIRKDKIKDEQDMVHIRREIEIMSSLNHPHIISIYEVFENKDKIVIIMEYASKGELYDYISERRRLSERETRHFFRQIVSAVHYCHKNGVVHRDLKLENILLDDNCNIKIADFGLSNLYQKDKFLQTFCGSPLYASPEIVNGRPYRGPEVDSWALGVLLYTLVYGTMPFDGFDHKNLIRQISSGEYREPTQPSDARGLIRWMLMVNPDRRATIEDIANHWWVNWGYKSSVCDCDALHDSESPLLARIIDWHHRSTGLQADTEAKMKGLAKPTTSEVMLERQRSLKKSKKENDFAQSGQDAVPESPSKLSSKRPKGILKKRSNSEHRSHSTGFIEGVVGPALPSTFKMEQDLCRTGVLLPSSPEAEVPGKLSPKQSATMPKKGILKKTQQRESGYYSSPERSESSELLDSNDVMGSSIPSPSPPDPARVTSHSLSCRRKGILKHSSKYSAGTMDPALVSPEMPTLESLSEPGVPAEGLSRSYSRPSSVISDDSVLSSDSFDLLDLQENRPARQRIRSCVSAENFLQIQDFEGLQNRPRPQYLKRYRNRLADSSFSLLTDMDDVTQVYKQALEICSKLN

PAK7 (human) = PAK7 (human) (UniProt Q9P286)
Chain of PAK7 (human) (Q9P286 whole entry, looked up): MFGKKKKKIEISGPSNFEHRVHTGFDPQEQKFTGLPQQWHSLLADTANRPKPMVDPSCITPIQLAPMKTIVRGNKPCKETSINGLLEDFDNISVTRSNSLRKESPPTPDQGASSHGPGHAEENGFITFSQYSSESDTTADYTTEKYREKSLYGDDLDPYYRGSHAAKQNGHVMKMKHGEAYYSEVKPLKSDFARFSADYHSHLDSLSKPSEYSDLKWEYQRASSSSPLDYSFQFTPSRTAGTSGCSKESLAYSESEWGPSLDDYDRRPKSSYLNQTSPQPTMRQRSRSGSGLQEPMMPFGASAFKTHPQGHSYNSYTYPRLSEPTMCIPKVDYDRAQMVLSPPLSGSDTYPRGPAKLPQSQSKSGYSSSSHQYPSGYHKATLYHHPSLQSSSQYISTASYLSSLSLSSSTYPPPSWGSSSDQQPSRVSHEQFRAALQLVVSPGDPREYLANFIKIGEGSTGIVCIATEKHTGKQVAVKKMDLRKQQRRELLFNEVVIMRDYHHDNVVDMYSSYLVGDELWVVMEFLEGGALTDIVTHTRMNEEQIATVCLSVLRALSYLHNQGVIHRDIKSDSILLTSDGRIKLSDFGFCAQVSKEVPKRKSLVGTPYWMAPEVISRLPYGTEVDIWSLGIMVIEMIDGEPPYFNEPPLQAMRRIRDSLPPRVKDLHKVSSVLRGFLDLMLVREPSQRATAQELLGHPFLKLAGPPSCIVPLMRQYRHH

PKN2 (human) = PKN2 (human) (UniProt Q16513)
PLK1 (human) = PLK1 (human) (UniProt P53350)
PRKAA2 (human) = PRKAA2 (human) (UniProt P54646)
RPS6KA1 KD1 (human) = RPS6KA1 KD1 (human) (UniProt Q15418)
SIK1 (human) = SIK1 (human) (UniProt P57059)
TGFBR1 (human) = TGFBR1 (human) (UniProt P36897)
Chain of TGFBR1 (human) (P36897 whole entry, looked up): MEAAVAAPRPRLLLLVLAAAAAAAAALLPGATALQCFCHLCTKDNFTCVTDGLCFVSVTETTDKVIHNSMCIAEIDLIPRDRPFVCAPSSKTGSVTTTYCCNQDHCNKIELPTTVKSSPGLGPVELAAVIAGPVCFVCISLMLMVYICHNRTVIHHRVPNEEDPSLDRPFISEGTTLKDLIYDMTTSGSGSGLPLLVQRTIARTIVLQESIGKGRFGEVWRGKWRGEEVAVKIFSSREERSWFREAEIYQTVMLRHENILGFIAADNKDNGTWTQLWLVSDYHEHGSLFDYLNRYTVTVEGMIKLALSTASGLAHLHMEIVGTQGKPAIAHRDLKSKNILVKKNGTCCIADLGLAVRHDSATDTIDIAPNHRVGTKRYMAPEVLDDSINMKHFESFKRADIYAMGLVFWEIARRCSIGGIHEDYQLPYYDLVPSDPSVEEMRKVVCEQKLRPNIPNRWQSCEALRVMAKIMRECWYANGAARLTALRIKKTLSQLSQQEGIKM

TXK (human) = TXK (human) (UniProt P42681)
TYRO3 (human) = TYRO3 (human) (UniProt Q06418)
WEE2 (human) = WEE2 (human) (UniProt P0C1S8)

For O=C1NC(=O)/C(=C/c2c[nH]c(=O)c(-c3ccc(N4CCNCC4)nc3)c2)S1, the kinase still bound, per cent of control [1] was 94%, the kinase still bound, per cent of control [2] was 100% and the kinase still bound, per cent of control [3] was 66%. For the same compound, the kinase still bound, per cent of control [4] was 96%, the kinase still bound, per cent of control [5] was 49% and the kinase still bound, per cent of control (ADCK3 (human)) was 76%. The kinase still bound, per cent of control (BRSK1 (human)) was 100%, the kinase still bound, per cent of control (CAMK1D (human)) was 48% and the kinase still bound, per cent of control (CAMK1G (human)) was 85%. For the same compound, the kinase still bound, per cent of control (CDC2L2 (human)) was 95%, the kinase still bound, per cent of control (CDC42BPG (human)) was 88% and the kinase still bound, per cent of control (CDK11B (human)) was 100%. It also gave a kinase still bound, per cent of control (CDK14 (human)) of 73%, a kinase still bound, per cent of control (CDK15 (human)) of 50% and a kinase still bound, per cent of control (DCLK2 (human)) of 67%. The kinase still bound, per cent of control (EPHA4 (human)) was 99%, the kinase still bound, per cent of control (EPHB1 (human)) was 95% and the kinase still bound, per cent of control (ERBB4 (human)) was 68%. The kinase still bound, per cent of control (FES (human)) was 100%, the kinase still bound, per cent of control (FGFR4 (human)) was 93% and the kinase still bound, per cent of control (GSK3B (human)) was 53%. The kinase still bound, per cent of control (IKBKB (human)) was 84%, the kinase still bound, per cent of control (INSR (human)) was 54% and the kinase still bound, per cent of control (KDR (human)) was 100%. The kinase still bound, per cent of control (LATS1 (human)) was 84%, the kinase still bound, per cent of control (MAP2K6 (human)) was 100% and the kinase still bound, per cent of control (MAP3K9 (human)) was 94%. For the same compound, the kinase still bound, per cent of control (MAPK13 (human)) was 100%, the kinase still bound, per cent of control (MARK3 (human)) was 100% and the kinase still bound, per cent of control (NLK (human)) was 97%. For the same compound, the kinase still bound, per cent of control (NTRK1 (human)) was 78%, the kinase still bound, per cent of control (NUAK1 (human)) was 77% and the kinase still bound, per cent of control (PAK7 (human)) was 65%. The kinase still bound, per cent of control (PKN2 (human)) was 41%, the kinase still bound, per cent of control (PLK1 (human)) was 46% and the kinase still bound, per cent of control (PRKAA2 (human)) was 100%. It also gave a kinase still bound, per cent of control (RPS6KA1 KD1 (human)) of 71%, a kinase still bound, per cent of control (SIK1 (human)) of 100% and a kinase still bound, per cent of control (TGFBR1 (human)) of 48%. For the same compound, the kinase still bound, per cent of control (TXK (human)) was 80%, the kinase still bound, per cent of control (TYRO3 (human)) was 100% and the kinase still bound, per cent of control (WEE2 (human)) was 100%.

N=C1NC(=O)/C(=C/c2ccc(-c3csc4ccccc34)o2)S1 was tested, and the kinase still bound, per cent of control (GSK3B (human)) was 12%, the kinase still bound, per cent of control (MARK3 (human)) was 20% and the kinase still bound, per cent of control (NUAK1 (human)) was 31%.

With COc1cc(N2CCC(O)CC2)ccc1Nc1ncc2c(n1)N1CCc3cccc(c31)C(=O)N2C the kinase still bound, per cent of control [1] was 90%, the kinase still bound, per cent of control [2] was 88% and the kinase still bound, per cent of control [3] was 63%. It also gave a kinase still bound, per cent of control [4] of 100%, a kinase still bound, per cent of control [5] of 93% and a kinase still bound, per cent of control (ADCK3 (human)) of 78%. It also gave a kinase still bound, per cent of control (BRSK1 (human)) of 100%, a kinase still bound, per cent of control (CAMK1D (human)) of 87% and a kinase still bound, per cent of control (CAMK1G (human)) of 57%. It also gave a kinase still bound, per cent of control (CDC2L2 (human)) of 100%, a kinase still bound, per cent of control (CDC42BPG (human)) of 100% and a kinase still bound, per cent of control (CDK11B (human)) of 100%. It also gave a kinase still bound, per cent of control (CDK14 (human)) of 91%, a kinase still bound, per cent of control (CDK15 (human)) of 99% and a kinase still bound, per cent of control (DCLK2 (human)) of 0.4%. For the same compound, the kinase still bound, per cent of control (EPHA4 (human)) was 98%, the kinase still bound, per cent of control (EPHB1 (human)) was 99% and the kinase still bound, per cent of control (ERBB4 (human)) was 87%. It also gave a kinase still bound, per cent of control (FES (human)) of 93%, a kinase still bound, per cent of control (FGFR4 (human)) of 56% and a kinase still bound, per cent of control (GSK3B (human)) of 91%. The kinase still bound, per cent of control (IKBKB (human)) was 92%, the kinase still bound, per cent of control (INSR (human)) was 53% and the kinase still bound, per cent of control (KDR (human)) was 79%. The kinase still bound, per cent of control (LATS1 (human)) was 100%, the kinase still bound, per cent of control (MAP2K6 (human)) was 100% and the kinase still bound, per cent of control (MAP3K9 (human)) was 96%. It also gave a kinase still bound, per cent of control (MAPK13 (human)) of 87%, a kinase still bound, per cent of control (MARK3 (human)) of 88% and a kinase still bound, per cent of control (NLK (human)) of 73%. It also gave a kinase still bound, per cent of control (NTRK1 (human)) of 82%, a kinase still bound, per cent of control (NUAK1 (human)) of 100% and a kinase still bound, per cent of control (PAK7 (human)) of 64%. It also gave a kinase still bound, per cent of control (PKN2 (human)) of 100%, a kinase still bound, per cent of control (PLK1 (human)) of 0.2% and a kinase still bound, per cent of control (PRKAA2 (human)) of 100%. It also gave a kinase still bound, per cent of control (RPS6KA1 KD1 (human)) of 94%, a kinase still bound, per cent of control (SIK1 (human)) of 88% and a kinase still bound, per cent of control (TGFBR1 (human)) of 100%. The kinase still bound, per cent of control (TXK (human)) was 100%, the kinase still bound, per cent of control (TYRO3 (human)) was 100% and the kinase still bound, per cent of control (WEE2 (human)) was 87%.

For N=C1NC(=O)/C(=C/c2ccc(-c3cncc4ccccc34)o2)S1, the kinase still bound, per cent of control (BRSK1 (human)) was 6.6%, the kinase still bound, per cent of control (CAMK1D (human)) was 9% and the kinase still bound, per cent of control (CAMK1G (human)) was 18%. The kinase still bound, per cent of control (IKBKB (human)) was 26%, the kinase still bound, per cent of control (MAP3K9 (human)) was 28% and the kinase still bound, per cent of control (PAK7 (human)) was 13%. It also gave a kinase still bound, per cent of control (PKN2 (human)) of 32%, a kinase still bound, per cent of control (PRKAA2 (human)) of 33% and a kinase still bound, per cent of control (RPS6KA1 KD1 (human)) of 30%. The kinase still bound, per cent of control (TGFBR1 (human)) was 34% and the kinase still bound, per cent of control (TXK (human)) was 13%.

CS(=O)(=O)Nc1ccc(-c2cncc(/C=C3\SC(=N)NC3=O)c2)cc1 showed a kinase still bound, per cent of control (NLK (human)) of 24% and a kinase still bound, per cent of control (TGFBR1 (human)) of 16%.

O=C1NC(=S)S/C1=C\c1ccc(-c2cncc3ccccc23)o1 was tested, and the kinase still bound, per cent of control (BRSK1 (human)) was 28%, the kinase still bound, per cent of control (CAMK1D (human)) was 28% and the kinase still bound, per cent of control (CAMK1G (human)) was 34%. The kinase still bound, per cent of control (KDR (human)) was 21%, the kinase still bound, per cent of control (MAP2K6 (human)) was 24% and the kinase still bound, per cent of control (PAK7 (human)) was 11%.

In the case of CN1C(=O)[C@H]2CCC[C@H]2N(C2CCCC2)c2nc(Nc3ccc(C(N)=O)cc3)ncc21, the kinase still bound, per cent of control (DCLK2 (human)) is reported as 18%, the kinase still bound, per cent of control (NLK (human)) is reported as 16% and the kinase still bound, per cent of control (PLK1 (human)) is reported as 0.65%. For the same compound, the kinase still bound, per cent of control (RPS6KA1 KD1 (human)) was 11% and the kinase still bound, per cent of control (TYRO3 (human)) was 31%.

N=C1NC(=O)/C(=C/c2ccc(-c3ccc(C(N)=O)cc3O)o2)S1 showed a kinase still bound, per cent of control (CDK14 (human)) of 18%, a kinase still bound, per cent of control (CDK15 (human)) of 13% and a kinase still bound, per cent of control (PKN2 (human)) of 31%.

Work on CS(=O)(=O)Nc1ccc(-c2ncc(/C=C3\SC(=N)NC3=O)s2)cc1 yielded a kinase still bound, per cent of control [5] of 26%.

Compound CSC1=NC(=O)/C(=C/c2c[nH]c(=O)c(-c3ccc(NS(C)(=O)=O)cc3)c2)S1 has a kinase still bound, per cent of control (IKBKB (human)) of 25% and a kinase still bound, per cent of control (PLK1 (human)) of 17%.

N=C1NC(=O)/C(=C/c2ccc(-c3ccccc3O)o2)S1 gave a kinase still bound, per cent of control (CDK15 (human)) of 34%.

For N=C1NC(=O)/C(=C/c2ccc(-c3ccc(F)cc3O)o2)S1, the kinase still bound, per cent of control (CDK14 (human)) was 19% and the kinase still bound, per cent of control (CDK15 (human)) was 9.4%.

In the case of Nc1cccc(-c2cc(/C=C3\SC(=O)NC3=O)c[nH]c2=O)c1, the kinase still bound, per cent of control (PLK1 (human)) is reported as 1.8%.

In the case of CS(=O)(=O)Nc1ccc(-c2cc(/C=C3\SC(=N)NC3=O)c[nH]c2=O)cc1, the kinase still bound, per cent of control (PKN2 (human)) is reported as 15% and the kinase still bound, per cent of control (TGFBR1 (human)) is reported as 24%.
